Data from patent publication US8802597B2, “Herbicidal pyrimidines” (E I du Pont de Nemours and Company, priority 2003, dated 2014).

Legend:
Type in all cases: in vivo
[1] = system: chickweed (Stellaria media); assay: Test C postemergence; details: for Plant response rating, Chickweed: scale 0 to 100
Text: Seeds or nutlets of plant species selected from bermudagrass (Cynodon dactylon), Surinam grass (Brachiaria decumbens), cocklebur (Xanthium strumarium), corn (Zea mays), crabgrass (Digitaria sanguinalis), woolly cupgrass (Eriochloa villosa), giant foxtail (Setaria faberii), goosegrass (Eleusine indica), johnsongrass (Sorghum halepense), kochia (Kochia scoparia), lambsquarters (Chenopodium album), morningglory (Ipomoea coccinea), eastern black nightshade (Solanum ptycanthum), yellow nutsedge (Cyperus esculentus), pigweed (Amaranthus retroflexus), common ragweed (Ambrosia elatior), soybean (Glycine max), common (oilseed) sunflower (Helianthus annuus), and velvetleaf (Abutilon theophrasti) were planted and treated preemergence with test chemicals formulated in a non-phytotoxic solvent mixture which included a surfactant.
At the same time, plants selected from these crop and weed species and also winter barley (Hordeum vulgare), blackgrass (Alopecurus myosuroides), canarygrass (Phalaris minor), chickweed (Stellaria media), downy brome (Bromus tectorum), green foxtail (Setaria viridis), Italian ryegrass (Lolium multiflorum), wheat (Triticum aestivum), wild oat (Avena fatua) and windgrass (Apera spica-venti) were treated with postemergence applications of some of the test chemicals formulated in the same manner. Plants ranged in height from 2 to 18 cm (1- to 4-leaf stage) for postemergence treatments. Plant species in the flooded paddy test consisted of rice (Oryza sativa), umbrella sedge (Cyperus difformis), duck salad (Heteranthera limosa) and barnyardgrass (Echinochloa crus-galli) grown to the 2-leaf stage for testing. Treated plants and controls were maintained in a greenhouse for 12 to 14 days, after which time all species were compared to controls and visually evaluated. Plant response ratings, summarized in Table C, are based on a scale of 0 to 100 where 0 is no effect and 100 is complete control. A dash (-) response means no test result.

corn (Zea mays) = assay: Test C pre/postemergence; details: Postemergence
How it was run: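 Pre: seeds planted, sprayed same day. Post: 1- to 4-leaf plants (2–18 cm). Formulation: non-phytotoxic solvent + surfactant. Greenhouse 12–14 d; visual % control vs untreated, 0–100.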

[2] = system: junglerice (Echinochloa colona); assay: Test E flooded paddy water application; details: Flood, 21 days, scale 0 to 100 (0 no effect, 100 complete control)
How it was run: (§1)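 Weeds sown in sterilized Tama silt loam (2.6% organic matter), greenhouse 29.5/26.7° C, 16-h photoperiod; at 2.0–2.5-leaf stage pots flooded to 3 cm and compound added to paddy water. Visual rating vs untreated controls after 21 days, 0 (no effect) to 100 (complete control).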

[3] = system: transplanted rice seedlings (Oryza sativa cv. ‘Japonica-M202’); assay: Test E flooded paddy water application; details: Flood, 21 days, scale 0 to 100 (0 no effect, 100 complete control)
How it was run: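 Response scored visually on a 0–100 scale (100 = complete control) at 21 days against untreated pots. Treatment was into paddy water 3 cm deep over silt loam, with plants at the 2.0–2.5-leaf stage, grown under 16-h light at 29.5/26.7 °C day/night.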

[4] = system: water seeded rice seedlings (Oryza sativa cv. ‘Japonica-M202’); assay: Test E flooded paddy water application; details: Flood, 21 days, scale 0 to 100 (0 no effect, 100 complete control)
How it was run: as §1

[5] = system: purple redstem (Ammannia coccinea); assay: Test E flooded paddy water application; details: Flood, 21 days, scale 0 to 100 (0 no effect, 100 complete control)
How it was run: as §1

[6] = system: bearded (brdd.) sprangletop (Leptochloa fusca ssp. fascicularis); assay: Test E flooded paddy water application; details: Flood, 21 days, scale 0 to 100 (0 no effect, 100 complete control)
How it was run: as §1

[7] = system: rice flatsedge (Cyperus iria); assay: Test E flooded paddy water application; details: Flood, 21 days, scale 0 to 100 (0 no effect, 100 complete control)
How it was run: as §1

[8] = system: ducksalad (Heteranthera limosa); assay: Test E flooded paddy water application; details: Flood, 21 days, scale 0 to 100 (0 no effect, 100 complete control)
How it was run: as §1

[9] = 62 g ai/ha, scale 0 to 100 (0 no effect, 100 complete control)
[10] = 125 g ai/ha, scale 0 to 100 (0 no effect, 100 complete control)

With `CCOC(=O)c1nc(C2CC2)nc(NN)c1Br` [Compound 42] the pest or weed control at 31 g/ha ([1]; Stellaria media, post-emergence, 31 g ai/ha, read-out: Plant response rating (scale of 0 to 100), Chickweed) was 0%, the pest or weed control at 62 g/ha ([1]; Stellaria media, post-emergence, 62 g ai/ha, scale 0 to 100 (0 no effect, 100 complete control), read-out: Chickweed plant response rating) was 0% and the pest or weed control at 125 g/ha ([1]; Stellaria media, post-emergence, 125 g ai/ha, scale 0 to 100 (0 no effect, 100 complete control), read-out: Chickweed plant response rating) was 0%. It also gave a pest or weed control at 250 g/ha ([1]; Stellaria media, post-emergence, 250 g ai/ha, scale 0 to 100, read-out: Plant response rating, Chickweed) of 10%, a Corn plant response rating (crop injury, 0 = no effect, 100 = complete kill) at 31 g/ha (corn (Zea mays); Zea mays, post-emergence, 31 g ai/ha, read-out: Plant response rating (scale of 0 to 100), Corn) of 0% and a Corn plant response rating (crop injury, 0 = no effect, 100 = complete kill) at 62 g/ha (corn (Zea mays); Zea mays, post-emergence, 62 g ai/ha, scale 0 to 100 (0 no effect, 100 complete control), read-out: Corn plant response rating) of 0%. For the same compound, the Corn plant response rating (crop injury, 0 = no effect, 100 = complete kill) at 125 g/ha (corn (Zea mays); Zea mays, post-emergence, 125 g ai/ha, scale 0 to 100 (0 no effect, 100 complete control), read-out: Corn plant response rating) was 0% and the Corn plant response rating (crop injury, 0 = no effect, 100 = complete kill) at 250 g/ha (corn (Zea mays); Zea mays, post-emergence, 250 g ai/ha, scale 0 to 100) was 0%.
In the case of `CC(=O)NN=Cc1nc(C2CC2)nc(N)c1Br` [Compound 51], the “Chickweed plant response rating” value [1, 9] is reported as 0, the “Chickweed plant response rating” value [1, 10] is reported as 0 and the “Plant response rating, Chickweed” value ([1]; 250 g ai/ha) is reported as 0. For the same compound, the “Plant response rating, Chickweed” value ([1]; 500 g ai/ha) was 45, the “Corn plant response rating” value (corn (Zea mays); [9]) was 0 and the “Corn plant response rating” value (corn (Zea mays); [10]) was 0. For the same compound, the “Plant response rating, Corn” value (corn (Zea mays); 250 g ai/ha, scale 0 to 100) was 0 and the “Plant response rating, Corn” value (corn (Zea mays); 500 g ai/ha, scale 0 to 100) was 0.
For `COC(=O)c1nc(-c2ccc(Cl)cc2)nc(N)c1Cl` [Compound 58, methyl 6-amino-5-chloro-2-(4-chlorophenyl)-4-pyrimidinecarboxylate], the “Junglerice plant response rating” value ([2]; 32 g ai/ha) was 0, the “Junglerice plant response rating” value ([2]; 64 g ai/ha) was 0 and the “Junglerice plant response rating” value ([2]; 125 g ai/ha) was 0. For the same compound, the “Junglerice plant response rating” value ([2]; 250 g ai/ha) was 0, the “Plant response rating, Junglerice” value ([2]; 16 g ai/ha) was 0 and the “Rice, Transplanted plant response rating” value ([3]; 32 g ai/ha) was 0. For the same compound, the “Rice, Transplanted plant response rating” value ([3]; 64 g ai/ha) was 0, the “Rice, Transplanted plant response rating” value ([3]; 125 g ai/ha) was 0 and the “Rice, Transplanted plant response rating” value ([3]; 250 g ai/ha) was 0. The “Plant response rating, Rice, Transplanted” value ([3]; 16 g ai/ha) was 0, the “Rice, Water Seeded plant response rating” value ([4]; 32 g ai/ha) was 0 and the “Rice, Water Seeded plant response rating” value ([4]; 64 g ai/ha) was 0. For the same compound, the “Rice, Water Seeded plant response rating” value ([4]; 125 g ai/ha) was 0, the “Rice, Water Seeded plant response rating” value ([4]; 250 g ai/ha) was 20 and the “Plant response rating, Rice, Water Seeded” value ([4]; 16 g ai/ha) was 0. The “Redstem plant response rating” value ([5]; 32 g ai/ha) was 80, the “Redstem plant response rating” value ([5]; 64 g ai/ha) was 85 and the “Redstem plant response rating” value ([5]; 125 g ai/ha) was 95. For the same compound, the “Redstem plant response rating” value ([5]; 250 g ai/ha) was 95, the “Plant response rating, Redstem” value ([5]; 16 g ai/ha) was 60 and the “Sprangletop, Brdd. plant response rating” value ([6]; 32 g ai/ha) was 40. The “Sprangletop, Brdd. plant response rating” value ([6]; 64 g ai/ha) was 60, the “Sprangletop, Brdd. plant response rating” value ([6]; 125 g ai/ha) was 60 and the “Sprangletop, Brdd. plant response rating” value ([6]; 250 g ai/ha) was 60. For the same compound, the “Plant response rating, Sprangletop, Brdd.” value ([6]; 16 g ai/ha) was 20, the “Flatsedge, Rice plant response rating” value ([7]; 32 g ai/ha) was 100 and the “Flatsedge, Rice plant response rating” value ([7]; 64 g ai/ha) was 100. The “Flatsedge, Rice plant response rating” value ([7]; 125 g ai/ha) was 100, the “Flatsedge, Rice plant response rating” value ([7]; 250 g ai/ha) was 100 and the “Plant response rating, Flatsedge, Rice” value ([7]; 16 g ai/ha) was 40. For the same compound, the “Ducksalad plant response rating” value ([8]; 32 g ai/ha) was 100, the “Ducksalad plant response rating” value ([8]; 64 g ai/ha) was 100 and the “Ducksalad plant response rating” value ([8]; 125 g ai/ha) was 100. For the same compound, the “Ducksalad plant response rating” value ([8]; 250 g ai/ha) was 100 and the “Plant response rating, Ducksalad” value ([8]; 16 g ai/ha) was 100.
`COC(=O)c1nc(-c2ccc(Cl)cc2)nc(N)c1Br` [Compound 83] was tested, and the “Plant response rating (scale of 0 to 100), Chickweed” value ([1]; 16 g ai/ha) was 0, the “Plant response rating (scale of 0 to 100), Chickweed” value ([1]; 31 g ai/ha) was 0 and the “Plant response rating (scale of 0 to 100), Chickweed” value ([1]; 62 g ai/ha) was 10. The “Chickweed plant response rating” value [1, 10] was 30, the “Plant response rating (scale of 0 to 100), Corn” value (corn (Zea mays); 16 g ai/ha) was 5 and the “Plant response rating (scale of 0 to 100), Corn” value (corn (Zea mays); 31 g ai/ha) was 15. The “Plant response rating (scale of 0 to 100), Corn” value (corn (Zea mays); 62 g ai/ha) was 50 and the “Corn plant response rating” value (corn (Zea mays); [10]) was 60.
`Nc1nc(-c2ccc(Br)cc2)nc(C(=O)O)c1Br` [Compound 136] was tested, and the “Plant response rating (scale of 0 to 100), Chickweed” value ([1]; 16 g ai/ha) was 45, the “Plant response rating (scale of 0 to 100), Chickweed” value ([1]; 31 g ai/ha) was 50 and the “Plant response rating (scale of 0 to 100), Chickweed” value ([1]; 62 g ai/ha) was 50. For the same compound, the “Chickweed plant response rating” value [1, 10] was 50, the “Plant response rating (scale of 0 to 100), Corn” value (corn (Zea mays); 16 g ai/ha) was 35 and the “Plant response rating (scale of 0 to 100), Corn” value (corn (Zea mays); 31 g ai/ha) was 35. For the same compound, the “Plant response rating (scale of 0 to 100), Corn” value (corn (Zea mays); 62 g ai/ha) was 65 and the “Corn plant response rating” value (corn (Zea mays); [10]) was 75.
